# Values of other authors in patent publication US20020095197A1, “Application of photochemotherapy for the treatment of cardiac arrhythmias” (priority 2000, published 2002).
# System: vascular wall (adventitia, media, intima)
# Conditions: photochemotherapy with Photofrin applied; literature report (Gonschior et al. 1997)
substance,measurement,value
porfimer sodium [Photofrin],inflammatory cells in vessel wall layers following vascular trauma,"presence of inflammatory cells in the adventitia (outermost layers), but not in the media or intima"
